Test results from paper PMC4859609, “Inhibition and Larvicidal Activity of Phenylpropanoids from Piper sarmentosum on Acetylcholinesterase against Mosquito Vectors and Their Binding Mode of Interaction” (PLoS ONE, 2016).

Columns and labels:
[1] = tested on: blood-starved female Ae. aegypti; test: Repellent activity (WHO procedure, treated forearm in cage); type: in vivo, Aedes aegypti; conditions: for % repellency: 300 μg/mL
Protocol: (§1) This study was carried out according to the method described by WHO standard procedure. Three-day-old blood-starved female of Ae.aegypti, Ae. albopictus and Cx. quinquefasciatus (100 each) were kept in a net cage (23 cm × 23 cm × 23 cm). Hands that had no contact with lotions, perfumes or perfumed soaps were exposed to the mosquito cage. Only 25 cm^2 dorsal side of the skin on each arm was exposed and the remaining area covered by rubber gloves. The tested substance was applied at several dosages, separately in the exposed area of the forearm. Acetone was served as control. The timing of the test depended on whether the tested mosquitoes were day or night biters. Ae.aegypti and Ae. albopictus were tested from 6 am to 9 am hours, while Cx. quinquefasciatus was tested from […] to 7 pm hours. Both control and treated arms were introduced simultaneously into the mosquito cage, and followed by gentle tapping on the sides of the experimental cages to activate the mosquitoes. Each test concentration was repeated four times. The volunteers conducted test for each concentration by inserting the treated and control arms into the same cage for one minute and repeated this action every five minutes. The mosquitoes that landed on the hand were recorded and then shaken off before imbibing any blood. The percentage of repellency was calculated by the following formula, %Repellency=[Ta−Tb/Ta]×100%,where
(§2) Ta: the number of mosquitoes in the control group.
(§3) Tb: the number of mosquitoes in the treated group.

[2] = tested on: blood-starved female Ae. albopictus; test: as above; type: in vivo, Aedes albopictus; conditions: for % repellency: 300 μg/mL
Protocol: as §1, §2, §3

[3] = target: AChE extracted from Cx. quinquefasciatus larvae (Culex quinquefasciatus, UniProt Q867X2); test: Acetylcholinesterase inhibition assay (in vitro, modified Ellman); type: biochemical
Protocol: (§4) For this experiments, the larvae were removed and homogenized at 0°C (keeping the homogenized mixture in plastic tube covered with ice) in 0.05 M-phosphate buffer, pH7.5 (KH2PO4-NaOH) (Merck, USA) by using a glass homogenizer with a polytetrafluoroethylene (PTFE) pestle (5%, w/v, homogenate). The homogenates were centrifuged for 20 min at 5°C and 16000 rpm. These supernatants were collected with pipette and kept inside the ice for studying the AChE inhibition biochemical assay.
(§5) To determine the IC50 values, procedures from Ellman et al., 1961 were modified and applied. Electronic multichannel pipette (Eppendorf, USA) was used to transfer exact 10 μL of enzyme solution to each well of a 96-well microtiter plate further mixed with 20 μL of tested compounds in solution form and 150 μL of cold phosphate buffer which were kept in refrigerator 1–4°C. The assay microtiter plates were incubated at 25°C for 10 min. Inhibitors were dissolved in DMSO (Merck, USA) in several concentration and stocks diluted to give a final concentration of 0.1% DMSO (v/v) were added into test well in separated rows. This was followed by adding 20 μL of acetylthiocholine iodide (ACTHI) (Sigma-Aldrich, USA) (0.4 mM) and DTNB (Sigma-Aldrich, USA) (0.3 mM) to enzyme solution to observe the reaction. Yellowish or colorless solution was observed during reaction for 30 minutes at room temperature. Changes in absorbance were recorded by a microplate readers (Synergy H1 Hybrid Multi-Mode Microplate Reader, USA) at 412 nm. Enzyme concentrations used were within the linear range of their toxicity activity.
(§6) %Inhibition=[Acon−Asam/Acon]×100%,where
(§7) Acon: the absorbance of the control
(§8) Asam: the absorbance of the test sample.
(§9) The IC50 was calculated by log-probit analysis using Polo Plus program. Another set of supernatant was loaded with 20 μL of ACTHI and DTNB solution only which served as control. The mean IC50 significant values were statistically determined by comparison of confident interval.

[4] = target: AChE extracted from Ae. aegypti larvae (Aedes aegypti, UniProt A4GND7); test: as above; type: biochemical
Protocol: as §4, §5, §6, §7, §8, §9

[5] = target: AChE extracted from Ae. albopictus larvae (Aedes albopictus, UniProt Q2PGF2); test: as above; type: biochemical
Protocol: as §4, §5, §6, §7, §8, §9

[6] = tested on: Ae. aegypti eggs; test: Ovicidal activity (egg hatching); conditions: for mortality at 25 µg/mL: read-out: ovicidal activity (% of egg mortality), 25 μg/mL
[7] = tested on: Culex quinquefasciatus larvae; test: Larval bioassay (WHO larvicidal procedure), late 3rd or early 4th larvae; conditions: for mortality at 9.3 µg/mL: Culex quinquefasciatus, 24 h, read-out: % larvae mortality; for dosage that can cause 50% mortality: larvae; for dosage that can cause 50% mortality / % larvae mortality: 24 hours; for % larvae mortality: ≤ 15 μg/mL
Protocol: (§10) All tested insects used for the experiments were obtained from colonies cultured in the laboratory at 27 ± 2°C and 65 ± 5% relative humidity. To determine the susceptibility, three species of adult mosquitoes and larvae of Ae. aegypti, Ae. albopictus and Cx. quinquefasciatus were used as sample and were measured over a period of 1 year (2012–2013) in this study. Each different species was categorized and reared in laboratory as laboratory strains. Ae. aegypti, Ae. albopictus and Cx. quinquefasciatus were collected from cemetery near the Malaysia International Airport KLI, 2011. Mosquito larvae were placed in plastic containers located in cages (23cm x 23cm x 23cm) at laboratory condition with a photoperiod of 13 hours of daylight and 11 hours of darkness for emergence.
(§11) The larval bioassay was performed on late 3rd or early 4th larvae of Ae. aegypti, Ae. albopictus and Cx. quinquefasciatus according to the WHO larvicidal activity standard procedure. 15 mg of asaricin 1, isoasarone 2 and trans-asarone 3 were separately dissolved in 1 mL of acetone as stock solution and several concentrations (4 to 20 μg/mL) were prepared through serial dilution by mixing specific amount of stock solution with 250mL distilled water. Twenty five larvae of Ae. aegypti, Ae. albopictus and Cx. quinquefasciatus were separately introduced into the plastic cups containing appropriate concentrations of asaricin 1, isoasarone 2 and trans-asarone 3. Control was only treated with 1 mL acetone added to 250mL distilled water. Mortality of the tested larvae was recorded at the end of 24 hours. Each treatment was replicated four times.
(§12) %larvae mortality=Number of dead larvae/Total number of introduced larvae×100%

[8] = tested on: Aedes aegypti larvae; test: as above; conditions: 24 hours; for dosage that can cause 50% mortality: larvae
Protocol: as §10, §11, §12

[9] = tested on: Aedes albopictus larvae; test: as above; conditions: 24 hours; for dosage that can cause 50% mortality: larvae
Protocol: as §10, §11, §12

[10] = tested on: Cx. quinquefasciatus eggs; test: Ovicidal activity (egg hatching); conditions: for mortality at 25 µg/mL: read-out: ovicidal activity (% of egg mortality), 25 μg/mL
[11] = tested on: blood-starved female Cx. quinquefasciatus; test: Repellent activity (WHO procedure, treated forearm in cage); type: in vivo, Culex quinquefasciatus
Protocol: as §1, §2, §3

[12] = tested on: Ae. albopictus eggs; test: Ovicidal activity (egg hatching); conditions: for mortality at 25 µg/mL: read-out: ovicidal activity (% of egg mortality), 25 μg/mL
[13] = tested on: AChE extracted from Cx. quinquefasciatus larvae; test: Acetylcholinesterase inhibition assay (in vitro, modified Ellman); type: biochemical; conditions: Culex quinquefasciatus; 95% confidence interval in brackets; log-probit
Protocol: as §4, §5, §6, §7, §8, §9

[14] = Culex quinquefasciatus, 48 h, 48 hours
[15] = Aedes albopictus, 48 h, 48 hours
[16] = even at higher dosage of 100 μg/mL

AChE extracted from Ae. aegypti larvae, sequence (A4GND7 37-679): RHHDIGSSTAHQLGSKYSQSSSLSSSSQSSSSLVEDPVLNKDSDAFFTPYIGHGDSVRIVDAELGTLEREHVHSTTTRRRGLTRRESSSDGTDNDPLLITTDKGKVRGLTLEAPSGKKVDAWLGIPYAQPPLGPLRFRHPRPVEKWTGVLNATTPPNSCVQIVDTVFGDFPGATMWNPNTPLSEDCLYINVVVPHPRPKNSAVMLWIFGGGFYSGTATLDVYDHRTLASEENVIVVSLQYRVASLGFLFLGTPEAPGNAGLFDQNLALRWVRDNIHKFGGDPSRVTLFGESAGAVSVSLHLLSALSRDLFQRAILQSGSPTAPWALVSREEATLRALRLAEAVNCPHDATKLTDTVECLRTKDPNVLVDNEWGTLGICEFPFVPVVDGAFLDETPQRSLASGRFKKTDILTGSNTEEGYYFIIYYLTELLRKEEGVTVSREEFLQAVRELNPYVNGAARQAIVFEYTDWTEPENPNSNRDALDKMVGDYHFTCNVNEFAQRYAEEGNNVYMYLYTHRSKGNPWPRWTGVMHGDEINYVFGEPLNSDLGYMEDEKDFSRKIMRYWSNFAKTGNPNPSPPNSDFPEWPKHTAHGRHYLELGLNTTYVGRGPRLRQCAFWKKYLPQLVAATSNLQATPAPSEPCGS
AChE extracted from Ae. albopictus larvae, sequence (Q2PGF2 37-680): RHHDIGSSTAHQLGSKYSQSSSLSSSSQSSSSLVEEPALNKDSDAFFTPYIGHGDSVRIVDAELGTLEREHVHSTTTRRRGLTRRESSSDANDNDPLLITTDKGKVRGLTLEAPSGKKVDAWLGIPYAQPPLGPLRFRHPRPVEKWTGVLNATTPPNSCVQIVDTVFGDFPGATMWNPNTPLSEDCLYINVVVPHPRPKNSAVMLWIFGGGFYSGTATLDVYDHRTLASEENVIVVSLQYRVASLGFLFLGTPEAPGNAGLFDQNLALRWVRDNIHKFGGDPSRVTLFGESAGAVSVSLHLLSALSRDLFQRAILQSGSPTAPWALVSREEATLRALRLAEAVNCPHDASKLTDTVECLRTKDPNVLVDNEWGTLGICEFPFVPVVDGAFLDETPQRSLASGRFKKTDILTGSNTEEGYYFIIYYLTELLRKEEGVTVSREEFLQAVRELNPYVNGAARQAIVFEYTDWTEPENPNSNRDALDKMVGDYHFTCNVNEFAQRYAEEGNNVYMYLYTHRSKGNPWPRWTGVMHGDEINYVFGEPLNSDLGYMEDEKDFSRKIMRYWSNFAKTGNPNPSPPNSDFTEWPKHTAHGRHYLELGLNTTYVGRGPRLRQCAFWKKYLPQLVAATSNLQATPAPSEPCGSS
AChE extracted from Cx. quinquefasciatus larvae (Culex quinquefasciatus, UniProt Q867X2), sequence (Q867X2 whole entry): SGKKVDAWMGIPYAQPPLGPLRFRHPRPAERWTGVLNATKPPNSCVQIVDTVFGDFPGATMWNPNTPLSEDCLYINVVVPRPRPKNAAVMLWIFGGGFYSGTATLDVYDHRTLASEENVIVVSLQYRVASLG

SMILES: C=CCc1cc(OC)c(OC)cc1OC [Isoasarone 2, isoasarone]
- % repellency [1]: below 55%
- repellent activity (in words) ([1]; 50 to 150 μg/mL): very weak
- % repellency [2]: below 55%
- repellent activity (in words) ([2]; 50 to 150 μg/mL): very weak
- Slope ± S.E of log-probit AChE inhibition curve [3]: 2.29±0.13
- Slope ± S.E of log-probit AChE inhibition curve [4]: 2.41±0.15
- Slope ± S.E of log-probit AChE inhibition curve [5]: 2.57±0.14
- mortality at 20 µg/mL ([6]; Aedes aegypti, 48 h, read-out: ovicidal activity (% of egg mortality), 20 μg/mL, 48 hours): 80 to 90%
- mortality at 25 µg/mL ([6]; Aedes aegypti, 48 h, 48 hours): ≤ 95%
- mortality at 9.3 µg/mL [7]: ≤ 80%
- dosage that can cause 50% mortality [7]: ≤ 7 µg/mL
- dosage that can cause 50% mortality [8]: ≤ 7 µg/mL
- dosage that can cause 50% mortality [9]: ≤ 7 µg/mL
- % larvae mortality ([9]; ≤ 9.3 μg/mL): ≤ 90%
- mortality at 20 µg/mL ([10]; Culex quinquefasciatus, 48 h, read-out: ovicidal activity (% of egg mortality), 20 μg/mL, 48 hours): 80 to 90%
- mortality at 25 µg/mL [10, 14]: ≤ 95%
- repellent activity (in words) ([11]; 50 to 150 μg/mL): very weak
- mortality at 20 µg/mL ([12]; Aedes albopictus, 48 h, read-out: ovicidal activity (% of egg mortality), 20 μg/mL, 48 hours): 80 to 90%
- mortality at 25 µg/mL [12, 15]: ≤ 95%

SMILES: C/C=C/c1cc(OC)c(OC)cc1OC [Trans-asarone 3, trans-asarone]
- repellent activity (in words) ([1]; in vivo): not significant
- repellent activity (in words) ([2]; in vivo): not significant
- Slope ± S.E of log-probit AChE inhibition curve [3]: 2.46±0.13
- AChE enzyme inhibition IC50 [13]: 17.4(12.6 to 24.4) μg/mL
- Slope ± S.E of log-probit AChE inhibition curve [4]: 3.63±0.14
- Slope ± S.E of log-probit AChE inhibition curve [5]: 2.00±0.16
- effect on egg hatchability [6, 16]: no effect
- mortality at 9.3 µg/mL [7]: 5 to 20%
- % larvae mortality ([8]; ≤ 9.3 μg/mL): 5–20%
- % larvae mortality ([9]; ≤ 9.3 μg/mL): 5–20%
- effect on egg hatchability [10, 16]: no effect
- repellent activity (in words) ([11]; in vivo): not significant
- effect on egg hatchability [12, 16]: no effect

SMILES: C=CCc1cc2c(cc1OC)OCO2 [Asaricin 1, asaricin]
- % repellency [1]: below 65%
- repellent activity (in words) ([1]; 50 to 150 μg/mL): very weak
- % repellency [2]: below 65%
- repellent activity (in words) ([2]; 50 to 150 μg/mL): very weak
- Slope ± S.E of log-probit AChE inhibition curve [3]: 2.50±0.14
- Slope ± S.E of log-probit AChE inhibition curve [4]: 2.07±0.13
- Slope ± S.E of log-probit AChE inhibition curve [5]: 2.25±0.14
- mortality at 25 µg/mL ([6]; Aedes aegypti, 48 h, 48 hours): ≤ 95%
- mortality at 9.3 µg/mL [7]: ≤ 80%
- dosage that can cause 50% mortality [7]: ≤ 7 µg/mL
- % larvae mortality [7]: up to 100%
- % larvae mortality ([7]; listed as asaricin 1): 100%
- dosage that can cause 50% mortality [8]: ≤ 7 µg/mL
- dosage that can cause 50% mortality [9]: ≤ 7 µg/mL
- % larvae mortality ([9]; ≤ 9.3 μg/mL): ≤ 90%
- % larvae mortality ([9]; ≤ 15 μg/mL): up to 100%
- % larvae mortality ([9]; ≤ 15 μg/mL, listed as asaricin 1): 100%
- mortality at 25 µg/mL [10, 14]: ≤ 95%
- % repellency ([11]; 300 μg/mL): below 65%
- repellent activity (in words) ([11]; 50 to 150 μg/mL): very weak
- mortality at 25 µg/mL [12, 15]: ≤ 95%
